From patent US20210275422A1, “ANTI-STRESS COMPOSITION CONTAINING COSMOPERINE” (AMOREPACIFIC CORPORATION, priority 2016, published 2021)

Tests used:
[1] = molecular target: T1, oxytocin receptor recombinant protein (Homo sapiens, UniProt P30559); test: Binding of cosmoperine to the oxytocin receptor by surface plasmon resonance; conditions: SPR chip with oxytocin receptor bound to its surface; cosmoperine 0 to 400 μM; reaction for 90 seconds
T1 construct: purchased Mybiosource, MA
T1 sequence (P30559 1-389): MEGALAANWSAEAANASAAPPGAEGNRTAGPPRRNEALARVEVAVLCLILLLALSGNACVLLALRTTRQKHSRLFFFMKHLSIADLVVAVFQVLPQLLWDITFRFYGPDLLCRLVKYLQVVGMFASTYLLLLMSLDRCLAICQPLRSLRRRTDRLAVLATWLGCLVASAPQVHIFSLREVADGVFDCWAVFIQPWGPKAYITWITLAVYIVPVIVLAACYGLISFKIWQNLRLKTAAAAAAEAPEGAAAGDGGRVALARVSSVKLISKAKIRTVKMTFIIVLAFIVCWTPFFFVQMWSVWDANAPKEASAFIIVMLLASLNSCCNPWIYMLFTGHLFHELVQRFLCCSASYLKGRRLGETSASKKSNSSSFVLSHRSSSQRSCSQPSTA
Procedure: In order to confirm the binding of cosmoperine to the oxytocin receptor, cosmoperine (Sabina Corp, NJ) at a concentration of 0 to 400 μM was applied to a SPR chip (Biorad, MA) with the oxytocin receptor (oxytocin receptor recombinant protein, Mybiosource, MA) bound to its surface, followed by reaction for 90 seconds. Then, the binding pattern of cosmoperine to the oxytocin receptor was measured using a surface plasmon resonance device (Surface plasmon resonance; Biorad, MA).

[2] = test system: PC12 (neurocytoma cell); test: Inhibitory effect on glucocorticoid-induced apoptosis (CCK-8 cell survival); type: cell-based; conditions: PC12 cells, 400 μM corticosterone 24 hours, 50 μM cosmoperine pretreated 2 hours before, relative survival rate
Procedure: In order to confirm the anti-stress effect of cosmoperine, a test was performed for glucocorticoid-induced apoptosis.
PC12 (neurocytoma cell; KCLB21721, Korea Cell Line Bank) was seeded into a 96-well plate at 2×10^4 cells/well and cultured at 5% CO2 and 37° C. The culture medium was RPMI 1640 medium (Gibco BRL, Grand Island, N.Y., USA)) supplemented with 10% serum (heat-inactivated fetal bovine serum (FBS, Gibco)), 100 U/ml of penicillin (Gibco) and 100 μg/ml of streptomycin (Gibco). The cells were treated with 400 μM corticosterone (Sigma, MA), which is a stress hormone, and cultured at 5% CO2 and 37° C. for 24 hours to induce stress. 400 μM corticosterone and 50 μM fluoxetine (fluoxetine hydrochloride, Sigma), which is an antidepressant, were used as the positive control group. For the cosmoperine-treated group, 400 μM corticosterone and 50 μM cosmoperine (Sabina Corp, NJ) were used. Fluoxetine and cosmoperine each were pretreated 2 hours before the application of corticosterone. 10 μl of CCK-8 solution (Dojindo Laboratories) was added to each of the wells, followed by culture for 2 hours. Then, measurements were made at […].

Q: What does the source list for `O=C(CCCCc1ccc2c(c1)OCO2)N1CCCCC1` [cosmoperine, tetrahydropiperine]?
A: binding to the oxytocin receptor [1]: binds to the oxytocin receptor in a concentration-dependent manner; inhibiting the apoptosis induced by corticosterone [2]: excellent in inhibiting the apoptosis induced by corticosterone
